B1: azurocidin (protein, UniProt P20160 27-248, looked up)
Azurocidin: IVGGRKARPRQFPFLASIQNQGRHFCGGALIHARFVMTAASCFQSQNPGVSTVVLGAYDLRRRERQSRQTFSISSMSENGYDPQQNLNDLMLLQLDREANLTSSVTILPLPLQNATVEAGTRCQVAGWGSQRSGGRLSRFPRFVNVTVTPEDQCRPNNVCTGVLTRRGGICNGDGGTPLVCEGLAHGVASFSLGPCGRGPDFFTRVALFRDWIDGVLNNPGP
notes: human neutrophil azurocidin

Tests used:
[1] = tested on: retinal vascular permeability; assay: Qualitative evaluation of retinal vascular permeability with 20-kDa FITC conjugated dextran; assay type: in vivo, Brown Norway rats; settings: flat-mount retinas, VEGF-injected eyes with or without aprotinin
Method: Retinal vascular permeability was documented in a histological manner by intravenous injection of 20-kDa FITC conjugated dextran (50 mg/Kg, Sigma Aldrich). Rats were sacrificed 30 minutes later with intracardiac perfusion of 4% paraformaldehyde to fix the dextran conjugate in the tissues. The retinas were carefully dissected and flat mounted in anti-fading medium (Vector Laboratories). Flat-mount retinas were examined by fluorescent microscopy. Digital color enhancement (green) was equally applied to all images for improved visualization of fluorescence.

isolated leukocytes = settings: VEGF 5-500 ng/ml, 20 minutes
Method: Additionally, in vitro it is investigated whether VEGF can cause the release of AZ from isolated leukocytes. The supernatant of VEGF-treated leukocytes is used to detect AZ using a Western Blot. Briefly, 10-20 ml of human blood is obtained by phlebotomy from healthy volunteers of both genders and all age groups. Leukocyte subtypes (i.e., neutrophils) are isolated using a percoll gradient technique. Then, 1-2×10^6 leukocytes are incubated for 20 minutes at room temperature with different concentrations (5-500 ng/ml) of human VEGF isoforms (121, 165, and 189) in a total volume of 200-300 μl of 1% FBS-containing PBS. Samples are then centrifuged at 1,500 rpm for 10 minutes, and 150-200 μl of the supernatant is collected for AZ-detection using the Western Blot technique with a commercially available antibody against human AZ (R&D systems).

[2] = tested on: VEGF-induced blood retinal barrier breakdown; assay: VEGF-induced blood retinal barrier breakdown (Evans Blue); assay type: in vivo, Brown Norway rats; settings: 24 hours after intravitreal 50 ng VEGF
Method: (§1) This study employed Brown Norway rats, AZ (1 μg, 10 μg, 20 μg), PBS, aprotinin, VEGF164, and polyclonal anti-AZ antibody (1 μg). Briefly, Brown Norway rats received intravitreal injections of AZ (1 μg, 10 μg and 20 μg) in one eye and PBS in the contralateral eye. BRB breakdown was quantified using the Evans Blue (EB) technique at 1 hour, 3 hours, and 24 hours after intravitreal injection of AZ or PBS. To assess whether AZ induced retinal leukostasis, firm leukocyte adhesion was quantified at 3 hours and 24 hours post AZ injection (10 μg) using the ex vivo conconavalin leukostasis assay. To block AZ, rats were treated with a single intravenous injection of aprotinin (30,000KIU), prior to the intravitreal injections. To investigate whether AZ was involved in VEGF-induced BRB breakdown, rats received intravitreal injections of 50 ng recombinant mouse VEGF164 in one eye and PBS in the other eye and were treated intravenously with aprotinin (50,000KIU every eight hours) or polyclonal anti-AZ antibody (1 μg). BRB breakdown and retinal leukostasis were quantified 24 hours after VEGF injection.
Rats received intravitreous injections of 5 μl of sterile phosphate-buffered saline (PBS) containing 50 ng VEGF164 (R&D Systems, Minneapolis, Minn.) in one eye and 5 μl of sterile phosphate-buffered saline (PBS) in the contralateral eye. The retinas were analyzed for leakage 24 hours after VEGF injection.
In a second group, the rats were additionally treated intravenously with aprotinin (Trasylol®, Bayer Pharmaceuticals). 50,000KIU of aprotinin (5 ml of Trasylol®) was administered intravenously through the tail vein 1 hour before, as well as 8 hours and 16 hours after, the intravitreal injection of VEGF. The retinas were analyzed 24 hours after VEGF administration.
In a third group, rats were treated with intravitreous injections of 1 μg of goat anti-human azurocidin polyclonal antibody (5 μl of a 200 μg/ml antibody solution, Santa Cruz biotechnology) or control goat isotype IgG (R&D system) in the VEGF injected eye 6 hours after VEGF administration.
Retinal vascular permeability was quantified as previously described (Qaum et al. (2002) supra, Xu et al. (2001) INVEST. OPHTHALMOL. VIS. SCI. 42; 789-94). After the animals were deeply anesthetized, Evans blue dye (Sigma) dissolved in normal saline (30 mg/ml) was injected through the tail vein over 10 seconds at a dosage of 45 mg/kg. Blood samples were obtained from the left ventricle, just before perfusion at 2 hours, to obtain the time-average Evans blue dye plasma concentration. These blood samples were centrifuged at 12,000 rpm for 15 minutes and diluted to 1/10,000th of their initial concentration in formamide (Sigma). The background-subtracted absorbance was determined by measuring each sample at 620 nm (the absorbance maximum for Evans blue dye in formamide) and 740 nm (the absorbance minimum) with a spectrophotometer. The concentration of dye in the plasma was calculated from a standard curve of Evans blue dye in formamide. After the dye had circulated for 2 hours, the chest cavity was opened, and the rats were perfused through the left ventricle with 1% paraformaldehyde in citrate buffer (0.05 M, pH 3.5) at a physiological pressure of 120 mm Hg. The retinas were then carefully dissected under an operating microscope. After measurement of the retinal weight, Evans blue dye was extracted by incubating each retina in 0.180 ml of formamide for 18 hours at 70° C. The extract was ultracentrifuged at a speed of 14,000 rpm for 60 minutes at 25° C. Sixty microliters of the supernatant was used for spectrophotometric measurement at 620 nm and 740 nm. The background-subtracted absorbance was determined by measuring each sample at 620 nm (the absorbance maximum for Evans blue dye in formamide) and 740 nm (the absorbance minimum). The concentration of dye in the extracts was calculated from a standard curve of Evans blue dye in formamide. […]

[3] = tested on: murine brain microvascular endothelial cells (bEND3); assay: Transendothelial electrical resistance (TEER), in vitro model of the BBB; assay type: cell-based; settings: AZ 25 μg/ml, VEGF 100 ng/ml
Method: The purpose of this experiment was to investigate the direct effects of VEGF and/or AZ on the BBB. This study used an in vitro model of the BBB in which transendothelial electrical resistance (TEER) in barrier-privileged murine brain microvascular endothelial cells (bEND3) was measured. The results provide support that the direct effects of VEGF and AZ on the endothelium of the BBB, although related, may be distinct.
Murine brain microvascular endothelial cells (bEND3) were grown on 0.4 μm fibronectin-coated inserts in 24-well plates (BD Bioscience, San Jose, Calif.). After the cells reached confluency, the cells were stimulated with AZ (AZ, 25 μg/ml), VEGF (100 ng/ml) or both. Electrical resistance was measured at the indicated time-points after the treatment by using a volt-ohmmeter (EVOM, World Precision Instruments, Sarasota, Fla.) with the electrode reproducibly positioned in each well. Transendothelial electrical resistance (TEER) values for each Transwell were calculated by subtracting the electrical resistance of the blank wells (coated filters without cells) prepared and treated as the experimental samples. All experiments were carried out in quadruplicate. The results were expressed as Mean±SEM from n=4 independent experiments.

[4] = tested on: VEGF-induced retinal leukostasis; assay: Concanavalin A ex vivo retinal leukostasis quantification, VEGF-induced; assay type: in vivo, Brown Norway rats
Method: as §1
Deep anesthesia was induced with xylazine and ketamine as above. The chest cavity was carefully opened and the left ventricle was entered with a 14-gauge perfusion cannula fixed to a vessel clamp; care was taken to avoid ventricular obstruction. The right atrium was opened with a 12-gauge needle to achieve outflow. With the heart providing the motive force, 250 ml/kg PBS (roughly 30 ml of PBS quickly) was perfused to clear erythrocytes and non-sticking leukocytes, followed by perfusion with FITC-coupled Concanavalin A lectin (20 μg/ml in PBS, pH 7.4, total concentration 5 mg/kg) (Vector Labs, Burlingame, Calif.). The latter stained adherent leukocytes and the vascular endothelium. Lectin staining was followed by PBS perfusion (30 ml quickly).
The retinas were flat-mounted in a water-based fluorescence-anti-fading medium (Southern Biotechnology, Birmingham, Ala.) and imaged via fluorescence microscopy (Leica upright microscope, Hamamatsu digital high sensitivity camera, openlab imaging software). The total number of adherent leukocytes per retina was counted in a masked fashion.

[5] = tested on: retinal vascular permeability (blood retina barrier); assay: Evans Blue BRB breakdown after intravitreal azurocidin; assay type: in vivo, Brown Norway rats; settings: intravitreal 20 μg
Method: as §1
Rats received intravitreous injections of 5 μl of sterile phosphate-buffered saline (PBS) containing 20 μg human neutrophil azurocidin (Athens Research and Biotechology, Atlanta, Ga.) in one eye and 5 μl of sterile phosphate-buffered saline (PBS) in the contralateral eye. The retinas were analyzed 45 minutes, 3 hours, and 24 hours after azurocidin injection.
Retinal vascular permeability was quantified as previously described (Qaum et al. (2002) supra, Xu et al. (2001) INVEST. OPHTHALMOL. VIS. SCI. 42; 789-94). After the animals were deeply anesthetized, Evans blue dye (Sigma) dissolved in normal saline (30 mg/ml) was injected through the tail vein over 10 seconds at a dosage of 45 mg/kg. Blood samples were obtained from the left ventricle, just before perfusion at 2 hours, to obtain the time-average Evans blue dye plasma concentration. These blood samples were centrifuged at 12,000 rpm for 15 minutes and diluted to 1/10,000th of their initial concentration in formamide (Sigma). The background-subtracted absorbance was determined by measuring each sample at 620 nm (the absorbance maximum for Evans blue dye in formamide) and 740 nm (the absorbance minimum) with a spectrophotometer. The concentration of dye in the plasma was calculated from a standard curve of Evans blue dye in formamide. After the dye had circulated for 2 hours, the chest cavity was opened, and the rats were perfused through the left ventricle with 1% paraformaldehyde in citrate buffer (0.05 M, pH 3.5) at a physiological pressure of 120 mm Hg. The retinas were then carefully dissected under an operating microscope. After measurement of the retinal weight, Evans blue dye was extracted by incubating each retina in 0.180 ml of formamide for 18 hours at 70° C. The extract was ultracentrifuged at a speed of 14,000 rpm for 60 minutes at 25° C. Sixty microliters of the supernatant was used for spectrophotometric measurement at 620 nm and 740 nm. The background-subtracted absorbance was determined by measuring each sample at 620 nm (the absorbance maximum for Evans blue dye in formamide) and 740 nm (the absorbance minimum). The concentration of dye in the extracts was calculated from a standard curve of Evans blue dye in formamide. Blood-retinal barrier breakdown was calculated as previously described (Qaum et al (2002) supra, Xu et al. (2001) supra). Briefly, as mentioned, the optical density of the formamide containing tissue-extracted Evans Blue dye and that of the animals' plasma were measured at two different wavelengths (620 and 740 nm). The values were then inserted into the following equation. [formula] Results were expressed as a percentage of the value in control eyes. As used through each of Examples 1 -12, the units for results from the EB technique are μl plasma/g retina/h. Ex Vivo Quantification of Retinal Leukostasis

| Molecule | retinal distribution of intravenously injected 20 kDa FITC-conjugated dextran [1] | anticipated release of AZ from leukocytes (isolated leukocytes) | BRB breakdown as percentage of the value in control eyes [2] | Evans Blue retinal leakage in VEGF-injected eye ([2]; PBS eye 9.6±1.4 (VEGF alone), 5.4±1.4 (with aprotinin)) [μl plasma/g retina/h] | fold increase in retinal vascular leakage compared to the PBS injected eye ([2]; aprotinin i.v. 50,000KIU every eight hours, antibody 1 μg intravitreal 6 hours after VEGF) [fold] | TEER after 6 hours until 24 hours after treatment [3] | TEER up to 6 hours after treatment [3] | TEER, first 30 minutes after incubation [3] | leukocyte adhesion as a percentage of leukocyte adhesion in the contralateral PBS-injected eye ([4]; 24 hours after 50 ng VEGF, aprotinin 50,000 KIU i.v. 1 hour before, 8 and 16 hours after) [%] | fold increase in total number of leukocytes adherent to the retina vessels compared to PBS-injected eyes ([4]; intravitreal 50 ng VEGF, 24 hours post injection) [fold] | time course of increase in retinal vascular permeability [5] | Evans Blue retinal leakage ([5]; 3 to 5 hours post injection, PBS eye 8.3±1.4) [μl plasma/g retina/h] | fold increase in Evans Blue retinal leakage compared to control eyes ([5]; 3 to 5 hours post injection, n=11) [fold] | Evans Blue retinal leakage ([5]; 24 hours post-injection, PBS eye 8.7±1.8) [μl plasma/g retina/h] | fold increase in Evans Blue retinal leakage compared to control eyes ([5]; 24 hours post-injection, n=6) [fold] | fold increase in Evans Blue retinal leakage compared to control eyes ([5]; approximately one to three hours after injection, n=8) [fold] | Evans Blue retinal leakage ([5]; one to three hours after injection, PBS eye 5.8±1.4) [μl plasma/g retina/h] |
| --- | --- | --- | --- | --- | --- | --- | --- | --- | --- | --- | --- | --- | --- | --- | --- | --- | --- |
| VEGF | fluorescence diffusely distributed throughout the retinal tissues at both intraluminal and extravascular locations | induces the release of AZ from leukocytes | 320%±74 | 29.7±7.5 | 3.2±0.74 | showed no sign of recovery in the TEER values | remained at the reduced levels until 6 hours after treatment | rapid and significant drop of resistance | 308 | 3 |  |  |  |  |  |  |  |
| B1 |  |  |  |  |  | started to recover to normal levels and reached higher values than untreated control | remained at the reduced levels until 6 hours after treatment | rapid and significant drop of resistance |  |  | with a peak one to three hours post administration | 21±2.3 | 2.7 | 16.5±2.8 | 1.7 | 7.7 | 45±17 |
